Laboratory results as given in paper PMC8039949, “A novel small-molecule PROTAC selectively promotes tau clearance to improve cognitive functions in Alzheimer-like models” (Theranostics, 2021).
Peptide text beside a SMILES is read from it. * marks the point of attachment. Cbz = O=C(OCc1ccccc1)*

Target: T1, human tau (hTau) (Homo sapiens, UniProt P10636)
T1 construct: expressed in transfected cells
Assay: Tau clearance in HEK293-hTau cells by Western blotting
Format: cell-based
Details: HEK293-hTau cells; 10 μM MG132 with 20 μM C004019; 24 h
Description: SH-SY5Y human neuroblastoma cells were cultured in 90% DME/F-12 medium (HyClone, SH30023.01) with 10% fetal bovine serum (FBS) (Biological Industries, 04-001-1ACS) and penicillin (100 U/mL)/ streptomycin (100 μg/mL) in a 37 °C incubator with humidified atmosphere of 5% CO2. Human embryonic kidney 293 cells (HEK293) or HEK293 with stable expression of wild-type full-length human tau (termed as HEK293-hTau) were cultured in 90% DMEM/High Glucose medium (HyClone, SH30022.01) containing 10% FBS and 200 μg/mL G418 (ThermoFisher Scientific, 10131027), in a humidified atmosphere of 5% CO2 at 37 °C. Neofect (DNA transfection reagent, TF20121201) was used for plasmids transfection. The cells were placed onto 6-well or 12-well plates. Plasmids (EGFP-hTau or 3xFlag-hTau or the vector), neofect and Opti-MEM medium (Gibco, 31985-070) were made into a mixture in a ratio of 1 μg: 1 μL : 100 μL and then added into each well of the plate. To inhibit proteasome activity, HEK293-hTau cells were cultured with DMEM/High medium containing 20 μM C004019 with or without 10 μM MG132, or the same volume of vehicle (DMSO) for 24 h at 37 °C. To induce tau hyperphosphorylation, SH-SY5Y cells were cultured with DME/F-12 medium containing 10 μM C004019 with or without 1 μM GFX and 1 μM WO for 24 h at 37 °C.
The cells or hippocampal/cortex tissues were homogenized for ~ 30 min on ice in buffer [50 mM Tris·HCl pH 7.4-7.5, 100 mM NaCl, 1% (vol/vol) Triton X-100, 5 mM EDTA, 1:100 PMSF, 1:1,000 protease inhibitor cocktail containing 4-(2-Aminoethyl)-benzenesulfonyl fluoride hydrochloride, aprotinin, bestatin, leupeptin, E-64, and pepstatin A stored at 4 °C], and then centrifuged at 12,000 × g at 4 °C for 20 min. The supernatant was collected and the protein levels were analyzed using bicinchoninic acid (BCA, KF016, Sigma-Aldrich) by following the manufacturer's instruction (served as soluble protein). The pellet was further incubated with 8% (wt/vol) SDS buffer at 4 °C and then treated by ultrasonic wave to reach a complete resuspension. […] Immunoreactive bands were quantitatively analyzed by Image J2x software.

T1 sequence (P10636 1-441 isoform P10636-8): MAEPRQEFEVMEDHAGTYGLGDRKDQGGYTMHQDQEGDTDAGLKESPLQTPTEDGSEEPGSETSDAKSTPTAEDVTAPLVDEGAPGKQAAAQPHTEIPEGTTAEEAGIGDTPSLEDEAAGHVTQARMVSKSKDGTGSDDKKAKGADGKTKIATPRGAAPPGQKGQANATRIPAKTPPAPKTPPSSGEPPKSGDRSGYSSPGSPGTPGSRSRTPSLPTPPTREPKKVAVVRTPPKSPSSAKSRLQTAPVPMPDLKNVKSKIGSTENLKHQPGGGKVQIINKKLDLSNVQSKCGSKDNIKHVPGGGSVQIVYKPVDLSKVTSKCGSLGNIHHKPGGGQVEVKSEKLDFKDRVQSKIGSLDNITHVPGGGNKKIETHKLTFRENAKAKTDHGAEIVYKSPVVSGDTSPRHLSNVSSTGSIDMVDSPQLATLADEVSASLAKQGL

**Q.** How did the “effect on C004019-induced clearance of tau (proteasome inhibition)” value turn out when CC(C)C[C@@H](C=O)NC(=O)[C@H](CC(C)C)NC(=O)[C@H](CC(C)C)NC(=O)OCc1ccccc1 [MG132, reference compound] (Cbz-Leu-Leu-Leu-aldehyde) was run?
**A.** The value was “abolished”.
